Read-outs that look alike come from different tables or passages of the source.
How the values were obtained:
[1] = tested on: murine fibroblasts; conditions: fold vs D2-AA; erastin-treated murine fibroblasts
Experimental: In this example, two different pools of cells were each seeded in 48-well plates and treated with 50 micromolar of erastin.
Afterwards, cell viability was measured by plate dilution assay to distinguish between cells that are alive and those that are dead on a Petri dish.

[2] = for Concentration of D2-AA in the RBCs, high: highest of cohort; for Concentration of D2-AA in the RBCs, low: lowest of cohort
Experimental: In this example, children suffering from INAD were treated with a daily dose of 3.9 grams of D2-LA ethyl ester followed by 2.9 grams of D2-LA ethyl ester. Given the age and weight of these children, such is assumed to be substantially equivalent to a loading dose of from about 7 and about 12 grams per day for an adult patient for an adult patient and a maintenance dose which is less than the loading dose again for an adult patient.
This example also determines the concentration of D2-AA in RBCs. Specifically, a cohort of 14 children was provided with a daily dose of 3.9 grams of D2-LA ethyl ester for 1 month followed by 2.9 grams of D2-LA ethyl ester for the remaining six-month period. Blood samples were taken at 3 months for all but 1 child and at 6 months for all children. The concentration of D2-AA in RBCs was measured.

[3] = Concentration of D2-LA and D2-AA in RBCs of the same single patient (Example 1); conditions: extrapolated from the 3 and 6 month values
Text: This example determines the relative concentration of D2-AA in the CSF and in RBCs in order to determine a correlation between these two concentrations. Specifically, a patient was continuously provided with a daily dose of 9 grams of D2-LA ethyl ester (which is 8.64 grams of active discounting for impurities and removal of the ethyl ester) over about a six-month period. […] In all cases, the D2-AA was obtained by deacylation of the ethyl ester of linoleic acid in the gastrointestinal tract followed by conversion of D2-LA in vivo to D2-AA.

[4] = tested on: patients with ALS; assay: ALSFRS-R functional decline in cohort of 3 ALS patients on primer plus maintenance dosing of D2-LA ethyl ester (Example 3); format: in vivo, human; conditions: about 9 grams daily for at least 30 days then 5 grams, natural history 21
Experimental: As set forth in the examples below, the rate of functional decline is predicated on measuring an individual's, or a cohort's, average for the natural history of disease progression. Next, the individual or cohort average for the functional decline is determined at a period of time such as at 3, 6 or 12 months after initiation of therapy. The rate of decline based on the average of the natural history of the cohort is set as the denominator. The numerator is set as the delta between the rate of the natural history of disease progression and the rate of functional decline after a set period of treatment per this invention. The resulting fraction is the multiplied by 100 to give a percent change. The following exemplifies this analysis. […]
The functionality of each of the patients was evaluated periodically using the ALSFRS-R protocol. […] Before initiation of therapy, the natural history of each patient in the cohort was determined and an average annual rate of functional decline was measured at 21.
The annualized progression of the disease, as measured by an average annual rate of functional decline for all three patients starting at the time that dosing began and terminating at the end of the dosing regimen and then annualized as described above, was measured as 2.1. […]

[2H]C([2H])(/C=C\CCCCC)/C=C\C([2H])([2H])/C=C\C([2H])([2H])/C=C\CCCC(=O)O
Level of protection against LPO induced cell death relative to 13,13-D2-arachidonic acid [1]: approximately twice

[2H]C([2H])(/C=C\C/C=C\C/C=C\CCCC(=O)O)/C=C\CCCCC [D2-AA, 13,13-D2-Arachidonic Acid]
Concentration of D2-AA in the RBCs, high ([2]; 3 months): 16.8% | Concentration of D2-AA in the RBCs, low ([2]; 3 months): 6.8% | Concentration of D2-AA in the RBCs, high ([2]; 6 months): 26.1% | Concentration of D2-AA in the RBCs, low ([2]; 6 months): 12.0% | Amount of D2-AA at 1 month in RBCs (estimated by linear extrapolation, FIG. 1) [3]: about 3%

[2H]C([2H])(/C=C\CCCCC)/C=C\CCCCCCCC(=O)OCC [D2-LA ethyl ester, 11,11-D2-linoleic acid ethyl ester]
Average annual rate of functional decline during dosing (ALSFRS-R), annualized [4]: 2.1

Reference: patent US12697319B2, “Methods for inhibiting the progression of neurodegenerative diseases” (BioJiva LLC, priority 2021, dated 2026)
